In US11845760B2, “PRMT5 inhibitors” (AMGEN INC., priority 2020, dated 2023):
Like-named read-outs stand apart in the source and are kept apart here.

Legend:
[1] = system: HCT116 MTAP null cells; experiment: HCT116 MTAP null cell line proliferation (CellTiter-Glo cell viability, 6 days); type: cell-based; conditions: HCT116 MTAP null cells, 6 days of treatment, CellTiter-Glo cell viability, read-out: HCT-116 MTAP null IC50
Experimental: (§1) To assess selective anti-proliferative activity of compounds of the invention in cells that have loss expression of MTAP, an HCT-116 isogenic cell line pair was utilized where one cell line was engineered to genetically knockout both MTAP alleles. Cell viability was then assessed in both the parent HCT-116 cell line and the MTAP null cell line after 6 days of treatment with compounds of the present invention. Selective anti-proliferative activity in the MTAP null cell line indicates MTA-cooperative inhibition of PRMT5 and ability to inhibit growth of cancer cells that have loss of MTAP.
(§2) HCT116 MTAP null and WT cells were seeded in 96-well tissue culture plates in RPMI 1640 media+10% fetal bovine serum. Plates were incubated overnight at 37° C. and 5% CO2. Cells were then treated with an 8- or 9-point serial dilution of compound, using a top concentration of 1, or 10 μM, 1:3 serial dilution steps and, a DMSO-only control. Cells were incubated in the presence of drug for 6 days. Effects on cell viability were measured with the CellTiter-Glo® Luminescent Cell Viability Assay (Promega) per manufacturer's recommendation. Assay plates were read on an EnVision™ Multilabel Reader using the Ultra-Sensitive luminescence module. IC50 values were calculated with GraphPad Prism v 5.01 using symmetrical sigmoidal dose-response least squares fit with Hill slope fixed to −1 and top constrain to 100% or GeneData Screener using a 4-parameter logistic model to fit dose response curves.
(§3) Alternatively, compounds could be assayed with a 384 well plate format:
(§4) Compounds were pre-spotted into 384 well plates with a 22-point serial dilution of compound, using a top concentration of 10 or 50 μM, 1:2 serial dilution steps and, a DMSO-only control. HCT116 MTAP null and WT cells were then seeded as above and after 6 days effects on cell viability were measured with the CellTiter-Glo® Luminescent Cell Viability Assay (Promega). Assay plates were read as above and IC50 values were calculated with GeneData Screener using a 4-parameter logistic model to fit dose response curves. The reported IC50 represents the value where the curve transits 50% of control.

[2] = system: HCT116 WT cells; experiment: HCT116 WT cell line proliferation (CellTiter-Glo cell viability, 6 days); type: cell-based; conditions: HCT116 WT (parent) cells, 6 days of treatment, CellTiter-Glo cell viability, read-out: HCT-116 WT IC50
Experimental: as §1, §2, §3, §4

| Compound | IC50 ([1]; HCT116-MTAP null, 144 h) [nM] | IC50 ([2]; Homo sapiens, HCT-116, 144 h) [nM] | IC50 [1] [nM] | IC50 [2] [nM] |
| --- | --- | --- | --- | --- |
| C[C@H]1OCc2c1c(N)nc1ccc(C(=O)N3[C@@H](C)COC[C@H]3c3ccc(C(F)(F)F)nc3)cc21 (racemic) [Example 305, ((3R)-4-amino-3-methyl-1,3-dihydrofuro[3,4-c]quinolin-8-yl)((3R,5S)-3-methyl-5-(6-(trifluoromethyl)-3-pyridinyl)-4-morpholinyl)methanone and ((3R)-4-amino-3-methyl-1,3-dihydrofuro[3,4-c]quinolin-8-yl)((3S,5R)-3-methyl-5-(6-(trifluoromethyl)-3-pyridinyl)-4-morpholinyl)methanone] | 49 | 611 |  |  |
| Cc1cc2nc(N)c3cnn(C)c3c2cc1C(=O)N1CCOC[C@@H]1c1ccc(C(F)(F)F)cc1 [Example 413, (4-amino-1,7-dimethyl-1H-pyrazolo[4,3-c]quinolin-8-yl)((3S)-3-(4-(trifluoromethyl)phenyl)-4-morpholinyl)methanone] | 22 | 413 |  |  |
| CCOc1ccc([C@@H]2COC[C@H](C)N2C(=O)c2cc3c4c(c(N)nc3cn2)[C@@H](C)OC4)nn1 (racemic) [Example 326, ((3R)-4-amino-3-methyl-1,3-dihydrofuro[3,4-c][1,7]naphthyridin-8-yl)((3R,5S)-3-(6-ethoxy-3-pyridazinyl)-5-methyl-4-morpholinyl)methanone and ((3R)-4-amino-3-methyl-1,3-dihydrofuro[3,4-c][1,7]naphthyridin-8-yl)((3S,5R)-3-(6-ethoxy-3-pyridazinyl)-5-methyl-4-morpholinyl)methanone] | 72 | 2580 |  |  |
| Nc1nc2cnc(C(=O)N3CCCC[C@H]3c3ccc(C(F)(F)F)cc3)cc2c2c1COC2 (single isomer, unassigned) [Example 486] | > 1000 | > 10000 |  |  |
| C[C@H]1COC[C@@H](c2ccc(OC(F)(F)F)cn2)N1C(=O)c1cc2c3c(c(N)nc2cc1F)COC3 (racemic) [Example 378, (4-amino-7-fluoro-1,3-dihydrofuro[3,4-c]quinolin-8-yl)((3R,5S)-3-methyl-5-(5-(trifluoromethoxy)-2-pyridinyl)-4-morpholinyl)methanone and (4-amino-7-fluoro-1,3-dihydrofuro[3,4-c]quinolin-8-yl)((3S,5R)-3-methyl-5-(5-(trifluoromethoxy)-2-pyridinyl)-4-morpholinyl)methanone] | 15 | 190 |  |  |
| Nc1nc2cnc(C(=O)N3CCOC[C@@H]3c3ccc(OC(F)F)nc3)cc2c2c1COC2.Nc1nc2cnc(C(=O)N3CCOC[C@H]3c3ccc(OC(F)F)nc3)cc2c2c1COC2 [Example 394, (4-amino-1,3-dihydrofuro[3,4-c][1,7]naphthyridin-8-yl)((3R)-3-(6-(difluoromethoxy)-3-pyridinyl)-4-morpholinyl)methanone (4-amino-1,3-dihydrofuro[3,4-c][1,7]naphthyridin-8-yl)((3S)-3-(6-(difluoromethoxy)-3-pyridinyl)-4-morpholinyl)methanone] |  |  | 624 | 36400 |
| C[C@H]1COC[C@@H](c2ccc(OC(F)(F)F)cn2)N1C(=O)c1cc2c3c(c(N)nc2cc1Cl)COC3 (racemic) [Example 375, (4-amino-7-chloro-1,3-dihydrofuro[3,4-c]quinolin-8-yl)((3R,5S)-3-methyl-5-(5-(trifluoromethoxy)-2-pyridinyl)-4-morpholinyl)methanone and (4-amino-7-chloro-1,3-dihydrofuro[3,4-c]quinolin-8-yl)((3S,5R)-3-methyl-5-(5-(trifluoromethoxy)-2-pyridinyl)-4-morpholinyl)methanone] | 3 | 58 |  |  |
| Nc1nc2ccc(C(=O)N3CCC(F)(F)CC3c3ccc(Br)cc3)cc2c2c1COC2 (racemic) [Example 368, (4-amino-1,3-dihydrofuro[3,4-c]quinolin-8-yl)-[rac-(2R)-2-(4-bromophenyl)-4,4-difluoro-1-piperidyl]methanone] | 457 | 2030 |  |  |
| COC(=O)[C@H]1CN(C(=O)c2cc3c4c(c(N)nc3cc2F)COC4)C[C@@H]1c1ccc(C(F)(F)F)cc1 (single isomer, unassigned) [Example 479] | 577 | 18900 |  |  |
| Cn1ncc2c(N)nc3cc(F)c(C(=O)N4CC[C@@H](Oc5ccc(C(F)(F)F)cn5)C4)cc3c21 (single isomer, unassigned) [Example 475] |  |  | 175 | 9490 |
| Nc1nc2cc(Cl)c(C(=O)N3CCOCC3c3ccnc(C(F)(F)F)c3)cc2c2c1COC2 (racemic) [Example 353, (4-amino-7-chloro-1,3-dihydrofuro[3,4-c]quinolin-8-yl)((3R)-3-(2-(trifluoromethyl)-4-pyridinyl)-4-morpholinyl)methanone and (4-amino-7-chloro-1,3-dihydrofuro[3,4-c]quinolin-8-yl)((3S)-3-(2-(trifluoromethyl)-4-pyridinyl)-4-morpholinyl)methanone] |  |  | 234 | 6890 |
| Nc1nc2ccc(C(=O)N3CCOCC3c3ccccc3)cc2c2c1COC2 (racemic) [Example 493, (4-amino-1,3-dihydrofuro[3,4-c]quinolin-8-yl)-[rac-(3S)-3-phenylmorpholin-4-yl]methanone] | > 1000 | > 10000 |  |  |

More lines, now with the values ahead:

| IC50 ([1]; HCT116-MTAP null, 144 h) [nM] | IC50 ([2]; Homo sapiens, HCT-116, 144 h) [nM] | IC50 [1] [nM] | IC50 [2] [nM] | Compound |
| --- | --- | --- | --- | --- |
| 513 | 32500 |  |  | Cn1ncc2c(N)nc3ccc(C(=O)N4CCOC[C@@H]4c4ccc(OC(F)F)nn4)cc3c21 [Example 553, (4-amino-1-methyl-1H-pyrazolo[4,3-c]quinolin-8-yl)((3S)-3-(6-(difluoromethoxy)-3-pyridazinyl)-4-morpholinyl)methanone] |
| 41 | 1230 |  |  | C[C@@H]1COC[C@H](c2ccc(C(F)(F)F)nn2)N1C(=O)c1cc2c3c(c(N)nc2cn1)COC3 [Example 555, (4-amino-1,3-dihydrofuro[3,4-c][1,7]naphthyridin-8-yl)((3R,5S)-3-methyl-5-(6-(trifluoromethyl)-3-pyridazinyl)-4-morpholinyl)methanone] |
| 269 | 8110 |  |  | Cn1ncc2c(N)nc3cc(C(F)(F)F)c(C(=O)N4CCOC[C@@H]4c4ccc(C(F)(F)F)cc4)cc3c21 [Example 548, (4-amino-1-methyl-7-(trifluoromethyl)-1H-pyrazolo[4,3-c]quinolin-8-yl)((3S)-3-(4-(trifluoromethyl)phenyl)-4-morpholinyl)methanone] |
| 36 | 1790 |  |  | C[C@H]1OCc2c1c(N)nc1ccc(C(=O)N3CCOC[C@@H]3c3ccc(OC(F)(F)F)cc3)cc21 (single isomer, unassigned) [Example 568] |
| 31 | 1240 |  |  | C[C@@H]1COC[C@H](c2ccc(C(F)(F)F)nc2)N1C(=O)c1cc2c3c(c(N)nc2cn1)COC3 [Example 524, (4-amino-1,3-dihydrofuro[3,4-c][1,7]naphthyridin-8-yl)((3R,5S)-3-methyl-5-(6-(trifluoromethyl)-3-pyridinyl)-4-morpholinyl)methanone] |
| 4 | 60 |  |  | C[C@@H]1COC[C@H](c2ccc(OC(F)(F)F)cc2)N1C(=O)c1cc2c3c(c(N)nc2cc1Cl)COC3 [Example 530, (4-amino-7-chloro-1,3-dihydrofuro[3,4-c]quinolin-8-yl)((3R,5S)-3-methyl-5-(4-(trifluoromethoxy)phenyl)-4-morpholinyl)methanone] |
| > 1000 | > 10000 |  |  | Nc1nc2ccc(C(=O)N3CCOC[C@H]3c3ccc(Cl)cc3)cc2c2c1COC2 (single isomer, unassigned) [Example 580] |
| 697 | 37100 |  |  | Cn1ncc2c3cc(C(=O)N4CCOC[C@@H]4c4ccc(OC(F)F)nn4)c(F)cc3nc(N)c21 [Example 557, (4-amino-7-fluoro-3-methyl-3H-pyrazolo[3,4-c]quinolin-8-yl)((3S)-3-(6-(difluoromethoxy)-3-pyridazinyl)-4-morpholinyl)methanone] |
| 6 | 120 |  |  | C[C@@H]1COC[C@H](c2ccc(C(F)(F)F)cc2)N1C(=O)c1cc2c3c(c(N)nc2cc1F)COC3 [Example 526, (4-amino-7-fluoro-1,3-dihydrofuro[3,4-c]quinolin-8-yl)((3R,5S)-3-methyl-5-(4-(trifluoromethyl)phenyl)-4-morpholinyl)methanone] |
| 44 | 2610 |  |  | C[C@@H]1COC[C@H](c2ccc(OC(F)(F)F)cc2)N1C(=O)c1ccc2nc(N)c3c(cnn3C)c2c1 [Example 534, (4-amino-3-methyl-3H-pyrazolo[3,4-c]quinolin-8-yl)((3R,5S)-3-methyl-5-(4-(trifluoromethoxy)phenyl)-4-morpholinyl)methanone] |
